Results on 12 compounds are retold here after US9771351B2, “Wnt signaling inhibitor” (KYOWA HAKKO KIRIN CO., LTD., priority 2013, dated 2017).

This assay deals with T-cell factor (TCF)-luciferase reporter using Wnt pathway as index. The assay is described as follows: Inhibitory activity against TCF-luciferase reporter using Wnt pathway as index (DLD-1/TCF-Luc cells). It is filed as cell-based, human. As to conditions: for inhibition at 1 µM: Homo sapiens, read-out: Inhibition ratio (%) at 1 μmol/L. How it is done: Test Example 1: Inhibitory Activity Against T-Cell Factor (TCF)-Luciferase Reporter Using Wnt Pathway as Index
The inhibitory activity of test compounds against Wnt pathway was evaluated by the following method.
A human colorectal adenocarcinoma cell line DLD-1 (Japanese Collection of Research Bioresources) was cultured in RPMI-1640 medium (Gibco/Life Technologies, Inc.) containing 10% fetal bovine serum (Gibco/Life Technologies, Inc.), 10 mmol/L of a 4-(2-hydroxyethyl)-1-piperazineethanesulfonic acid (HEPES) buffer solution (Gibco/Life Technologies, Inc.), 1 mmol/L of a sodium pyruvate solution (Gibco/Life Technologies, Inc.), 4.5 g/L of a D-(+)-glucose solution (Sigma-Aldrich, Inc.), 100 units/mL penicillin (Gibco/Life Technologies, Inc.) and 100 μg/mL of streptomycin (Gibco/Life Technologies, Inc.) under the conditions of 37° C. and 5% carbon dioxide gas. The DLD-1 cells were seeded in a 10 cm dish, and 20 μg of a luciferase gene plasmid pGL4.27 having a TCF responsive sequence inserted therein was transfected into the cells using 10 μL of Attractene (Qiagen, Inc.) according to the protocol attached to the product. A stably expressing cell line (DLD-1/TCF-Luc) was selected using […] of hygromycin B (Wako Pure Chemical Industries Ltd.). The DLD-1/TCF-Luc cells were detached with trypsin and seeded in a 384-well plate, and a test compound was added at different concentrations. After 18 hours, the luciferase activity was measured using Steady-Glo™ Luciferase Assay System (Promega, Inc.).
The inhibition ratio was obtained according to the following formula 1. The inhibition ratio (%) of the compound of the present invention at 1 μmol/L against the TCF-luciferase reporter using the Wnt pathway as an index is shown in Table 6. [Math. 1] Inhibition ratio (%)=100−{(luciferase activity when test compound was added)−(luciferase activity of blank)}/{(luciferase activity of control)−(luciferase activity of blank)}×100 Formula 1

Setting [1] is: 1 μmol/L, DLD-1/TCF-Luc cells, luciferase activity after 18 hours.

Like-named read-outs stand apart in the source and are kept apart here.

`N#Cc1ccccc1CN1C(=O)N(CC2CCN(c3nnnc4ccccc34)CC2)Cc2ccccc21` [Compound 4, 2-[(3-{[1-(Benzo[d][1,2,3]triazin-4-yl)piperidin-4-yl]methyl}-2-oxo-3,4-dihydroquinazolin-1(2H)-yl)methyl]benzonitrile]: the inhibition at 1 µM under setting [1] turned out to be 74%. Consider `N#Cc1cc(N2C(=O)N(CC3CCN(c4ncnc5cnc(C(N)=O)cc45)CC3)Cc3ccccc32)ccc1F` [Compound 45, 4-(4-{[1-(3-Cyano-4-fluorophenyl)-2-oxo-1,2-dihydroquinazolin-3(4H)-yl]methyl}piperidin-1-yl)pyrido[3,4-d]pyrimidine-6-carboxamido], for which, under setting [1], the “Inhibition ratio (%) at 1 μmol/L” value is given as 86%. On to `COc1cc2ncnc(N3CCC(CN4Cc5ccccc5N(c5cc(C#N)ccn5)C4=O)CC3)c2cc1OC` [Compound 10, 2-(3-{[1-(6,7-Dimethoxyquinazolin-4-yl)piperidin-4-yl]methyl}-2-oxo-3,4-dihydroquinazolin-1(2H)-yl)isonicotinonitrile], for which, under setting [1], the inhibition at 1 µM was determined as 79%. `N#Cc1ccccc1CN1C(=O)N(CC2CCN(c3ncnc4cc5c(cc34)OCO5)CC2)Cc2ccccc21` [Compound 3, 2-[(3-{[1-([1,3]Dioxo[4,5-g]quinazolin-8-yl)piperidin-4-yl]methyl}-2-oxo-3,4-dihydroquinazolin-1(2H)-yl)methyl]benzo nitrile]: the “Inhibition ratio (%) at 1 μmol/L” value under setting [1] came to 77%. `N#Cc1cc(N2C(=O)N(CC3CCN(c4nccc5c(=O)[nH]cnc45)CC3)Cc3ccccc32)ccn1` [Compound 42, 4-(2-Oxo-3-{[1-(4-oxo-3,4-dihydropyrido[3,4-d]pyrimidin-8-yl)piperidin-4-yl]methyl}-3,4-dihydroquinazolin-1(2H)-yl)picolinonitrile]: where the note is “DLD-1, 18 h”, the inhibition at 1 µM was 81%. Turning to `COc1cc2ncnc(N3CCC(CN4Cc5ccccc5N(c5ccnc(C#N)n5)C4=O)CC3)c2cc1OC` [Compound 11, 4-(3-{[1-(6,7-Dimethoxyquinazolin-4-yl)piperidin-4-yl]methyl}-2-oxo-3,4-dihydroquinazolin-1(2H)-yl)pyrimidine-2-carbonitrile], the inhibition at 1 µM under setting [1] was found to be 87%.

Consider `N#Cc1cc(N2C(=O)N(CC3CCN(c4ncnc5cnccc45)CC3)Cc3cc(F)cnc32)ccn1` [Compound 23, 4-(6-Fluoro-2-oxo-3-{[1-(pyrido[3,4-d]pyrimidin-4-yl)piperidin-4-yl]methyl}-3,4-dihydropyrido[2,3-d]pyrimidin-1(2H)-yl)picolinonitrile], for which the inhibition at 1 µM under setting [1] was 84%.

Regarding `N#Cc1cc(N2C(=O)N(CC3CCN(c4ncnc5cc(C(N)=O)ccc45)CC3)Cc3ccccc32)ccn1` [Compound 28, 4-(4-{[1-(2-Cyanopyridin-4-yl)-2-oxo-1,2-dihydroquinazolin-3(4H)-yl]methyl}piperidin-1-yl)quinazoline-7-carboxamido], the “Inhibition ratio (%) at 1 μmol/L” value under setting [1] is recorded as 84%. Consider `N#Cc1cc(N2C(=O)N(CC3CCN(c4ncnc5[nH]ccc45)CC3)Cc3ccccc32)ccn1` [Compound 31, 4-(3-{[1-(7H-pyrrolo[2,3-d]pyrimidin-4-yl)piperidin-4-yl]methyl}-2-oxo-3,4-dihydroquinazolin-1(2H)-yl)picolinonitrile], for which, under “DLD-1, 18 h”, the inhibition at 1 µM turned out to be 74%. With `N#Cc1cc(N2C(=O)N(CC3CCN(c4nccn5c(=O)[nH]nc45)CC3)Cc3ccccc32)ccn1` [Compound 39, 4-(2-Oxo-3-{[1-(3-oxo-2,3-dihydro-[1,2,4]triazolo[4,3-a]pyrazin-8-yl)piperidin-4-yl]methyl}-3,4-dihydroquinazolin-1(2H)-yl)picolinonitrile], where the note is “DLD-1, 18 h”, the inhibition at 1 µM amounted to 89%.

With `COc1cc2ncnc(N3CCC(NC4Cc5ccccc5N(c5ccnc(C#N)c5)C4=O)CC3)c2cc1OC` (stereo not drawn) [Compound 19, 4-{3-[1-(6,7-Dimethoxyquinazolin-4-yl)piperidin-4-ylamino]-2-oxo-3,4-dihydroquinolin-1(2H)-yl}picolinonitrile], the inhibition at 1 µM under setting [1] stood at 91%. “4-(3-{[1-(6-Aminopyrimido[3,4-d]pyrimidin-4-yl)piperidin-4-yl]methyl}-2-oxo-3,4-dihydroquinazolin-1(2H)-yl)picolinonitrile [Compound 33]”: the “Inhibition ratio (%) at 1 μmol/L” value under setting [1] was found to be 82%.
